# Experimental data as given in patent US10689377B2 (Mirati Therapeutics, Inc., priority 2017, dated 2020).
# Target: KRas G12C (Homo sapiens, UniProt P01116, G12C)
# Test: Cellular inhibition of KRas G12C measured by Phospho-ERK in NCI-H358 cells
# Format: cell-based
# Details: pERK(Thr202/Tyr204) normalized with GAPDH, NCI-H358 cells, 3 hours; read-out: IC50
# Procedure, shortened: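 Readout is pERK(Thr202/Tyr204) immunofluorescence normalized to GAPDH, expressed as percent of DMSO control and fitted with a 4-parameter curve for IC50. Attached NCI-H358 cells received compound for 3 hours in 0.5% DMSO, followed by fixation and methanol permeabilization.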
# KRas G12C, sequence (P01116 1-188 isoform P01116-2 G12C): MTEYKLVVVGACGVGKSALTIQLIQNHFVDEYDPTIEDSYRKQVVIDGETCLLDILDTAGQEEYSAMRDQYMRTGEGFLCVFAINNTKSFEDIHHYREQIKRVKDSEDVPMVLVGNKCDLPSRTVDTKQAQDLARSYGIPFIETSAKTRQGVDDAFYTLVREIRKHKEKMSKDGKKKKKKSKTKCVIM
row,SMILES,IC50 [nM]
1,"C=CC(=O)N1CCN(c2nc(OC[C@@H]3CCCN3C)nc3c2CCN(c2cccc4ccccc24)C3)[C@@H](C#N)C1 [Example 465, (R)-4-acryloyl-1-(2-(((S)-1-methylpyrrolidin-2-yl)methoxy)-7-(naphthalen-1-yl)-5,6,7,8-tetrahydropyrido[3,4-d]pyrimidin-4-yl)piperazine-2-carbonitrile]",> 1000
2,"C=C(F)C(=O)N1CCN(c2nc(OC[C@@H]3CCCN3C)nc3c2CCN(c2cccc(C)c2C)C3)C[C@@H]1CC#N [Example 472, 2-[(2S)-4-[7-(2,3-dimethylphenyl)-2-[[(2S)-1-methylpyrrolidin-2-yl]methoxy]-6,8-dihydro-5H-pyrido[3,4-d]pyrimidin-4-yl]-1-(2-fluoroprop-2-enoyl)piperazin-2-yl]acetonitrile]",0.1 to 1000
3,"C=C(Cl)C(=O)N1CCN(c2nc(OC[C@@H]3CCCN3C)nc3c2CCN(c2cccc(C)c2C)C3)C[C@@H]1CC#N [Example 473, 2-[(2S)-1-(2-chloroprop-2-enoyl)-4-[7-(2,3-dimethylphenyl)-2-[[(2S)-1-methylpyrrolidin-2-yl]methoxy]-6,8-dihydro-5H-pyrido[3,4-d]pyrimidin-4-yl]piperazin-2-yl]acetonitrile]",0.1 to 1000
4,"CN1CCC[C@H]1COc1nc2c(c(N3CCN(C(=O)C#CCO)[C@@H](CC#N)C3)n1)CCN(c1cccc3ccccc13)C2 [Example 474, 2-((S)-1-(4-hydroxybut-2-ynoyl)-4-(2-(((S)-1-methylpyrrolidin-2-yl)methoxy)-7-(naphthalen-1-yl)-5,6,7,8-tetrahydropyrido[3,4-d]pyrimidin-4-yl)piperazin-2-yl)acetonitrile]",0.1 to 1000
5,"Cc1cccc(N2CCc3c(nc(OC[C@@H]4CCCN4C)nc3N3CCN(C(=O)/C=C/CN4CCC(F)C4)[C@@H](CC#N)C3)C2)c1C (stereo partly drawn) [Example 476, 2-[(2S)-4-[7-(2,3-dimethylphenyl)-2-[[(2S)-1-methylpyrrolidin-2-yl]methoxy]-6,8-dihydro-5H-pyrido[3,4-d]pyrimidin-4-yl]-1-[(E)-4-(3-fluoropyrrolidin-1-yl)but-2-enoyl]piperazin-2-yl]acetonitrile]",0.1 to 1000
6,"CN1CCC[C@H]1COc1nc2c(c(N3CCN(C(=O)C#CCO)[C@@H](CC#N)C3)n1)CCN(c1cccc3cccc(Cl)c13)C2 [Example 483, 2-[(2S)-4-[7-(8-chloro-1-naphthyl)-2-[[(2S)-1-methylpyrrolidin-2-yl]methoxy]-6,8-dihydro-5H-pyrido[3,4-d]pyrimidin-4-yl]-1-(4-hydroxybut-2-ynoyl)piperazin-2-yl]acetonitrile]",0.1 to 1000
7,"Cc1cccc(N2CCc3c(nc(OC[C@@H]4CCCN4C)nc3N3CCN(C(=O)/C=C/C(F)(F)F)[C@@H](CC#N)C3)C2)c1C [Example 486, 2-((S)-4-(7-(2,3-dimethylphenyl)-2-(((S)-1-methylpyrrolidin-2-yl)methoxy)-5,6,7,8-tetrahydropyrido[3,4-d]pyrimidin-4-yl)-1-((E)-4,4,4-trifluorobut-2-enoyl)piperazin-2-yl)acetonitrile]",0.1 to 1000
8,"C=C(C(=O)N1CCN(c2nc(OC[C@@H]3CCCN3C)nc3c2CCN(c2cccc(C)c2C)C3)C[C@@H]1CC#N)C(F)(F)F [Example 487, 2-((S)-4-(7-(2,3-dimethylphenyl)-2-(((S)-1-methylpyrrolidin-2-yl)methoxy)-5,6,7,8-tetrahydropyrido[3,4-d]pyrimidin-4-yl)-1-(2-(trifluoromethyl)acryloyl)piperazin-2-yl)acetonitrile]",0.1 to 1000
9,"C=C(CO)C(=O)N1CCN(c2nc(OC[C@@H]3CCCN3C)nc3c2CCN(c2cccc(C)c2C)C3)C[C@@H]1CC#N [Example 488, 2-((S)-4-(7-(2,3-dimethylphenyl)-2-(((S)-1-methylpyrrolidin-2-yl)methoxy)-5,6,7,8-tetrahydropyrido[3,4-d]pyrimidin-4-yl)-1-(2-(hydroxymethyl)acryloyl)piperazin-2-yl)acetonitrile]",> 1000
10,"COC/C=C/C(=O)N1CCN(c2nc(OC[C@@H]3CCCN3C)nc3c2CCN(c2cccc(C)c2C)C3)C[C@@H]1CC#N [Example 489, 2-((S)-4-(7-(2,3-dimethylphenyl)-2-(((S)-1-methylpyrrolidin-2-yl)methoxy)-5,6,7,8-tetrahydropyrido[3,4-d]pyrimidin-4-yl)-1-((E)-4-methoxybut-2-enoyl)piperazin-2-yl)acetonitrile]",0.1 to 1000
11,"C=C(C(=O)N1CCN(c2nc(OC[C@@H]3CCCN3C)nc3c2CCN(c2cccc4cccc(C)c24)C3)C[C@@H]1CC#N)C(F)(F)F [Example 492, 2-((S)-4-(7-(8-methylnaphthalen-1-yl)-2-(((S)-1-methylpyrrolidin-2-yl)methoxy)-5,6,7,8-tetrahydropyrido[3,4-d]pyrimidin-4-yl)-1-(2-(trifluoromethyl)acryloyl)piperazin-2-yl)acetonitrile]",0.1 to 1000
12,"Cc1cccc2cccc(N3CCc4c(nc(OC[C@@H]5CCCN5C)nc4N4CCN(C(=O)/C=C/c5ccccn5)[C@@H](CC#N)C4)C3)c12 [Example 493, 2-((S)-4-(7-(8-methylnaphthalen-1-yl)-2-(((S)-1-methylpyrrolidin-2-yl)methoxy)-5,6,7,8-tetrahydropyrido[3,4-d]pyrimidin-4-yl)-1-((E)-3-(pyridin-2-yl)acryloyl)piperazin-2-yl)acetonitrile]",0.1 to 1000

# Further lines, results first:
row,IC50 [nM],SMILES
1,> 1000,"Cc1cccc2cccc(N3CCc4c(nc(OC[C@@H]5CCCN5C)nc4N4CCN(C(=O)/C=C/c5cnn(C)c5)[C@@H](CC#N)C4)C3)c12 [Example 494, 2-((S)-1-((E)-3-(1-methyl-1H-pyrazol-4-yl)acryloyl)-4-(7-(8-methylnaphthalen-1-yl)-2-(((S)-1-methylpyrrolidin-2-yl)methoxy)-5,6,7,8-tetrahydropyrido[3,4-d]pyrimidin-4-yl)piperazin-2-yl)acetonitrile]"
2,0.1 to 1000,"Cc1cccc2cccc(N3CCc4c(nc(OC[C@@H]5CCCN5C)nc4N4CCN(C(=O)C5=CC(=O)CC5)[C@@H](CC#N)C4)C3)c12 [Example 497, 2-((S)-4-(7-(8-methylnaphthalen-1-yl)-2-(((S)-1-methylpyrrolidin-2-yl)methoxy)-5,6,7,8-tetrahydropyrido[3,4-d]pyrimidin-4-yl)-1-(3-oxocyclopent-1-ene-1-carbonyl)piperazin-2-yl)acetonitrile]"
3,0.1 to 1000,"Cc1cccc2cccc(N3CCc4c(nc(OC[C@@H]5CCCN5C)nc4N4CCN(C(=O)/C=C/C(=O)N(C)C)[C@@H](CC#N)C4)C3)c12 [Example 499, (E)-4-((S)-2-(cyanomethyl)-4-(7-(8-methylnaphthalen-1-yl)-2-(((S)-1-methylpyrrolidin-2-yl)methoxy)-5,6,7,8-tetrahydropyrido[3,4-d]pyrimidin-4-yl)piperazin-1-yl)-N,N-dimethyl-4-oxobut-2-enamide]"
4,0.1 to 1000,"Cc1cccc2cccc(N3CCc4c(nc(OC[C@@H]5CCCN5C)nc4N4CCN(C(=O)/C=C/C(N)=O)[C@@H](CC#N)C4)C3)c12 [Example 500, (E)-4-((S)-2-(cyanomethyl)-4-(7-(8-methylnaphthalen-1-yl)-2-(((S)-1-methylpyrrolidin-2-yl)methoxy)-5,6,7,8-tetrahydropyrido[3,4-d]pyrimidin-4-yl)piperazin-1-yl)-4-oxobut-2-enamide]"
5,> 1000,"CN(C)C/C=C(/F)C(=O)N1CCN(c2nc(OC[C@@H]3CCCN3C)nc3c2CCN(c2cccc4cccc(Cl)c24)C3)C[C@@H]1CC#N [Example 503, 2-[(2S)-4-[7-(8-chloro-1-naphthyl)-2-[[(2S)-1-methylpyrrolidin-2-yl]methoxy]-6,8-dihydro-5H-pyrido[3,4-d]pyrimidin-4-yl]-1-[(E)-4-(dimethylamino)-2-fluoro-but-2-enoyl]piperazin-2-yl]acetonitrile]"
6,> 1000,"Cc1cccc(N2CCc3c(nc(OC[C@@H]4CCCN4C)nc3N3CCN(C(=O)/C=C\Cl)[C@@H](CC#N)C3)C2)c1C [Example 505, 2-((S)-1-((Z)-3-chloroacryloyl)-4-(7-(2,3-dimethylphenyl)-2-(((S)-1-methylpyrrolidin-2-yl)methoxy)-5,6,7,8-tetrahydropyrido[3,4-d]pyrimidin-4-yl)piperazin-2-yl)acetonitrile]"
7,0.1 to 1000,"Cc1cccc2cccc(N3CCc4c(nc(OC[C@@H]5CCCN5C)nc4N4CCN(C(=O)C#CCO)[C@@H](CC#N)C4)C3)c12 [Example 508, 2-((S)-1-(4-hydroxybut-2-ynoyl)-4-(7-(8-methylnaphthalen-1-yl)-2-(((S)-1-methylpyrrolidin-2-yl)methoxy)-5,6,7,8-tetrahydropyrido[3,4-d]pyrimidin-4-yl)piperazin-2-yl)acetonitrile]"
8,0.1 to 1000,"C=C(F)C(=O)N1CCN(c2nc(OC[C@H]3C[C@@H](F)CN3C)nc3c2CCN(c2cccc4cccc(C)c24)C3)C[C@@H]1CC#N [Example 518, 2-[(2S)-4-[2-[[(2R,4R)-4-fluoro-1-methyl-pyrrolidin-2-yl]methoxy]-7-(8-methyl-1-naphthyl)-6,8-dihydro-5H-pyrido[3,4-d]pyrimidin-4-yl]-1-(2-fluoroprop-2-enoyl)piperazin-2-yl]acetonitrile]"
9,0.1 to 1000,"C=C(F)C(=O)N1CCN(c2nc(OC[C@H]3C[C@@H](OC)CN3C)nc3c2CCN(c2cccc4cccc(C)c24)C3)C[C@@H]1CC#N [Example 519, 2-[(2S)-1-(2-fluoroprop-2-enoyl)-4-[2-[[(2R,4R)-4-methoxy-1-methyl-pyrrolidin-2-yl]methoxy]-7-(8-methyl-1-naphthyl)-6,8-dihydro-5H-pyrido[3,4-d]pyrimidin-4-yl]piperazin-2-yl]acetonitrile]"
10,0.1 to 1000,"Cc1cccc2cccc(N3CCc4c(nc(OC[C@@H]5CC(F)(F)CN5C)nc4N4CCN(C(=O)/C=C/CN5CC(F)C5)[C@@H](CC#N)C4)C3)c12 [Example 520, 2-[(2S)-4-[2-[[(2S)-4,4-difluoro-1-methyl-pyrrolidin-2-yl]methoxy]-7-(8-methyl-1-naphthyl)-6,8-dihydro-5H-pyrido[3,4-d]pyrimidin-4-yl]-1-[(E)-4-(3-fluoroazetidin-1-yl)but-2-enoyl]piperazin-2-yl]acetonitrile]"
